The DC50 is the midpoint of the concentration-degradation curve.

SMILES strings stand for the structures. Bounds are passed on as bounds.

This assay addresses T1, endogenous PIP4K2C C-terminally tagged with HiBiT peptide in MOLT-4 cells (Homo sapiens, UniProt Q8TBX8).
T1 construct: to C-terminally tag endogenous PIP4K2C with HiBiT peptide; host or cells: MOLT-4 (CRISPR-Cas9 knock-in clone)
T1 sequence (Q8TBX8 1-421): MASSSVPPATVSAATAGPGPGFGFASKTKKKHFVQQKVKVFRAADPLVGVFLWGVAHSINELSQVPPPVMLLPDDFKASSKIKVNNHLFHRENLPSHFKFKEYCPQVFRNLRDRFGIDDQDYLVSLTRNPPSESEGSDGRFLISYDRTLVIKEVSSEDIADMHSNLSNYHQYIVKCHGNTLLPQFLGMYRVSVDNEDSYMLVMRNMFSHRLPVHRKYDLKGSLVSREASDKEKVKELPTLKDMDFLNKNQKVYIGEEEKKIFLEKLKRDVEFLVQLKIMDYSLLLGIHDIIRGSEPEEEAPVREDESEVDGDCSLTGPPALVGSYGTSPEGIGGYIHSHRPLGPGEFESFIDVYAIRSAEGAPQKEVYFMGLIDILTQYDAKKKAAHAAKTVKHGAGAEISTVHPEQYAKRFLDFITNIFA
The experiment in a line: HiBiT PIP4K2C degradation assay in MOLT-4 cells. Type of assay: cell-based. The settings on record: 24 hours, 10-point dose response, top concentration 10 micromolar, read-out: HiBIT-degradation MOLT4 PIP4k2C 24 hours DC50. A digest of the protocol:
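Cells bearing C-terminal HiBiT knock-in were exposed to a 10-point, 3-fold dilution series (top 10 micromolar, duplicate) for 24 h at 37C, 5% CO2. Remaining tagged protein read by lytic HiBiT luminescence; DC50 from Hill-equation fit.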
(In general: HiBiT is a short tag that completes a luciferase, so light tracks the accessible tagged protein.)
As for `O=C1CCC(Nc2ccc(N3CCC(CC(=O)N4CCC5(CC4)CCN(c4cncc(Nc6ncc(Cl)c(N7CCC[C@H](O)C7)n6)c4)C5=O)CC3)cc2)C(=O)N1` (stereo partly drawn) [Compound 175, 3-((4-(4-(2-(2-(5-((5-chloro-4-((S)-3-hydroxypiperidin-1-yl)pyrimidin-2-yl)amino)pyridin-3-yl)-1-oxo-2,8-diazaspiro[4.5]decan-8-yl)-2-oxoethyl)piperidin-1-yl)phenyl)amino)piperidine-2,6-dione], the DC50 was less than 500 nM.
The same measure for `O=C1CCC(Nc2ccc(N3CCC(CC(=O)N4CCC5(CC4)CCN(c4cncc(Nc6ncc(Cl)c(N7CCC[C@@H](O)C7)n6)c4)C5=O)CC3)cc2)C(=O)N1` (stereo partly drawn) [Compound 176, 3-((4-(4-(2-(2-(5-((5-chloro-4-((R)-3-hydroxypiperidin-1-yl)pyrimidin-2-yl)amino)pyridin-3-yl)-1-oxo-2,8-diazaspiro[4.5]decan-8-yl)-2-oxoethyl)piperidin-1-yl)phenyl)amino)piperidine-2,6-dione]: less than 500 nM.
As for `O=C1CCC(Nc2ccc(N3CCC(CC(=O)N4CCC5(CC4)CCN(c4cncc(Nc6ncc(Cl)c(N7CCC[C@@H](C(F)(F)F)C7)n6)c4)C5=O)CC3)cc2)C(=O)N1` (stereo partly drawn) [Compound 177, 3-((4-(4-(2-(2-(5-((5-chloro-4-((R)-3-(trifluoromethyl)piperidin-1-yl)pyrimidin-2-yl)amino)pyridin-3-yl)-1-oxo-2,8-diazaspiro[4.5]decan-8-yl)-2-oxoethyl)piperidin-1-yl)phenyl)amino)piperidine-2,6-dione], the DC50 was less than 500 nM.
The same measure for `O=C1CCC(Nc2ccc(N3CCC(CC(=O)N4CCC5(CC4)CCN(c4cncc(Nc6ncc(Cl)c(N7CCC[C@H](C(F)(F)F)C7)n6)c4)C5=O)CC3)cc2)C(=O)N1` (stereo partly drawn) [Compound 178, 3-((4-(4-(2-(2-(5-((5-chloro-4-((S)-3-(trifluoromethyl)piperidin-1-yl)pyrimidin-2-yl)amino)pyridin-3-yl)-1-oxo-2,8-diazaspiro[4.5]decan-8-yl)-2-oxoethyl)piperidin-1-yl)phenyl)amino)piperidine-2,6-dione]: less than 500 nM; for `O=C1CCC(Nc2ccc(C3CCN(CC(=O)N4CCC5(CC4)CCN(c4cncc(Nc6ncc(Cl)c(-c7cccc(N8CCCC8)c7)n6)c4)C5=O)CC3)cc2)C(=O)N1` (stereo not drawn) [Compound 179, 3-((4-(1-(2-(2-(5-((5-chloro-4-(3-(pyrrolidin-1-yl)phenyl)pyrimidin-2-yl)amino)pyridin-3-yl)-1-oxo-2,8-diazaspiro[4.5]decan-8-yl)-2-oxoethyl)piperidin-4-yl)phenyl)amino)piperidine-2,6-dione]: less than 500 nM.
As for `O=C1CCC(Nc2ccc(N3CCC(O)(CC(=O)N4CCC5(CC4)CCN(c4cncc(Nc6ncc(Cl)c(-c7cccc(-c8ccccc8)c7)n6)c4)C5=O)CC3)cc2)C(=O)N1` (stereo not drawn) [Compound 180, 3-[4-[4-[2-[2-[5-[[5-chloro-4-(3-phenylphenyl)pyrimidin-2-yl]amino]-3-pyridyl]-1-oxo-2,8-diazaspiro[4.5]decan-8-yl]-2-oxo-ethyl]-4-hydroxy-1-piperidyl]anilino]piperidine-2,6-dione], the figure is less than 500 nM.
The same measure for `O=C1CCC(Nc2ccc(N3CCC(CC(=O)N4CCC5(CC4)CCN(c4cncc(Nc6ncc(Cl)c(N7CCOC(c8ccccc8)C7)n6)c4)C5=O)CC3)cc2)C(=O)N1` (stereo not drawn) [Compound 181, 3-((4-(4-(2-(2-(5-((5-chloro-4-(2-phenylmorpholino)pyrimidin-2-yl)amino)pyridin-3-yl)-1-oxo-2,8-diazaspiro[4.5]decan-8-yl)-2-oxoethyl)piperidin-1-yl)phenyl)amino)piperidine-2,6-dione]: less than 500 nM.
For the molecule `O=C1CCC(Nc2ccc(N3CCC(CC(=O)N4CCC5(CC4)CCN(c4cncc(Nc6ncc(Cl)c(-c7cccc(N8CCCCC8)c7)n6)c4)C5=O)CC3)cc2)C(=O)N1` (stereo not drawn) [Compound 182, 3-((4-(4-(2-(2-(5-((5-chloro-4-(3-(piperidin-1-yl)phenyl)pyrimidin-2-yl)amino)pyridin-3-yl)-1-oxo-2,8-diazaspiro[4.5]decan-8-yl)-2-oxoethyl)piperidin-1-yl)phenyl)amino)piperidine-2,6-dione], the DC50 is less than 500 nM.
The same measure for `O=C1CCC(Nc2ccc(N3CCC(N4CCN(CCC(=O)Nc5cncc(Nc6ncc(Cl)c(-c7cccc(-c8ccccc8)c7)n6)c5)CC4)CC3)cc2)C(=O)N1` (stereo not drawn) [Compound 183, N-(5-((4-([1,1′-biphenyl]-3-yl)-5-chloropyrimidin-2-yl)amino)pyridin-3-yl)-3-(4-(1-(4-((2,6-dioxopiperidin-3-yl)amino)phenyl)piperidin-4-yl)piperazin-1-yl)propanamide]: less than 500 nM; for `O=C1CCC(Nc2ccc(N3CCC(CC(=O)N4CCC5(CC4)CCN(c4cncc(Nc6ncc(Cl)c(-c7cccc(N8CCCC8)c7)n6)c4)C5=O)CC3)cc2)C(=O)N1` (stereo not drawn) [Compound 184, 3-((4-(4-(2-(2-(5-((5-chloro-4-(3-(pyrrolidin-1-yl)phenyl)pyrimidin-2-yl)amino)pyridin-3-yl)-1-oxo-2,8-diazaspiro[4.5]decan-8-yl)-2-oxoethyl)piperidin-1-yl)phenyl)amino)piperidine-2,6-dione]: less than 500 nM; for `O=C1CCC(Nc2ccc(C3CCN(CC(=O)N4CCC5(CC4)CCN(c4cncc(Nc6ncc(Cl)c(-c7cccc(N8CCCCC8)c7)n6)c4)C5=O)CC3)cc2)C(=O)N1` (stereo not drawn) [Compound 185, 3-[4-[1-[2-[2-[5-[[5-chloro-4-[3-(1-piperidyl)phenyl]pyrimidin-2-yl]amino]-3-pyridyl]-1-oxo-2,8-diazaspiro[4.5]decan-8-yl]-2-oxo-ethyl]-4-piperidyl]anilino]piperidine-2,6-dione]: less than 500 nM.
Consider `O=C1CCC(Nc2ccc(C3CCN(CC(=O)N4CCC5(CC4)CCN(c4cncc(Nc6ncc(Cl)c(N7CCOC(c8ccccc8)C7)n6)c4)C5=O)CC3)cc2)C(=O)N1` (stereo not drawn) [Compound 186, 3-[4-[1-[2-[2-[5-[[5-chloro-4-(2-phenylmorpholin-4-yl)pyrimidin-2-yl]amino]-3-pyridyl]-1-oxo-2,8-diazaspiro[4.5]decan-8-yl]-2-oxo-ethyl]-4-piperidyl]anilino]piperidine-2,6-dione], for which the DC50 was less than 500 nM.
As for `O=C1CCC(Nc2ccc(N3CCC(CN4CCC(C(=O)Nc5cncc(Nc6ncc(Cl)c(-c7cccc(-c8ccccc8)c7)n6)c5)CC4)CC3)cc2)C(=O)N1` (stereo not drawn) [Compound 187, N-(5-((4-([1,1′-biphenyl]-3-yl)-5-chloropyrimidin-2-yl)amino)pyridin-3-yl)-1-((1-(4-((2,6-dioxopiperidin-3-yl)amino)phenyl)piperidin-4-yl)methyl)piperidine-4-carboxamide], the figure is less than 500 nM; as for `O=C1CCC(Nc2ccc(C3CCN(CC(=O)N4CCC5(CC4)CCN(c4cncc(Nc6ncc(Cl)c(-c7cccc(N8CCC8)c7)n6)c4)C5=O)CC3)cc2)C(=O)N1` (stereo not drawn) [Compound 188, 3-((4-(1-(2-(2-(5-((4-(3-(azetidin-1-yl)phenyl)-5-chloropyrimidin-2-yl)amino)pyridin-3-yl)-1-oxo-2,8-diazaspiro[4.5]decan-8-yl)-2-oxoethyl)piperidin-4-yl)phenyl)amino)piperidine-2,6-dione], less than 500 nM.
The same measure for `O=C1CCC(Nc2ccc(N3CCC(CC(=O)N4CCC5(CC4)CCN(c4cncc(Nc6ncc(Cl)c(-c7cccc(C8CCCCC8)c7)n6)c4)C5=O)CC3)cc2)C(=O)N1` (stereo not drawn) [Compound 189, 3-((4-(4-(2-(2-(5-((5-chloro-4-(3-cyclohexylphenyl)pyrimidin-2-yl)amino)pyridin-3-yl)-1-oxo-2,8-diazaspiro[4.5]decan-8-yl)-2-oxoethyl)piperidin-1-yl)phenyl)amino)piperidine-2,6-dione]: 500 to 1000 nM; for `O=C1CCC(Nc2ccc(C3CCN(CC(=O)N4CCC5(CC4)CCN(c4cncc(Nc6ncc(Cl)c(-c7cccc(C8CCCCC8)c7)n6)c4)C5=O)CC3)cc2)C(=O)N1` (stereo not drawn) [Compound 190, 3-((4-(1-(2-(2-(5-((5-chloro-4-(3-cyclohexylphenyl)pyrimidin-2-yl)amino)pyridin-3-yl)-1-oxo-2,8-diazaspiro[4.5]decan-8-yl)-2-oxoethyl)piperidin-4-yl)phenyl)amino)piperidine-2,6-dione]: less than 500 nM.
The same measure for `O=C1CCC(Nc2ccc(N3CCC(CC(=O)N4CCC5(CC4)CCN(c4cncc(Nc6ncc(Cl)c(-c7cccc(C8CCCC8)c7)n6)c4)C5=O)CC3)cc2)C(=O)N1` (stereo not drawn) [Compound 191, 3-((4-(4-(2-(2-(5-((5-chloro-4-(3-cyclopentylphenyl)pyrimidin-2-yl)amino)pyridin-3-yl)-1-oxo-2,8-diazaspiro[4.5]decan-8-yl)-2-oxoethyl)piperidin-1-yl)phenyl)amino)piperidine-2,6-dione]: less than 500 nM; for `O=C1CCC(Nc2ccc(C3CCN(CC(=O)N4CCC5(CC4)CCN(c4cncc(Nc6ncc(Cl)c(-c7cccc(C8CCCC8)c7)n6)c4)C5=O)CC3)cc2)C(=O)N1` (stereo not drawn) [Compound 192, 3-((4-(1-(2-(2-(5-((5-chloro-4-(3-cyclopentylphenyl)pyrimidin-2-yl)amino)pyridin-3-yl)-1-oxo-2,8-diazaspiro[4.5]decan-8-yl)-2-oxoethyl)piperidin-4-yl)phenyl)amino)piperidine-2,6-dione]: less than 500 nM.

For the origin of these results see US20260184691A1, “INHIBITORS AND DEGRADERS OF PIP4K PROTEIN” (Larkspur Biosciences, Inc., priority 2022, published 2026).
